According to ChEMBL document CHEMBL1157332, “Neuroprotective bibenzyl glycosides of Stemona tuberosa roots” (2006):

Key:
SH-SY5Y [1] = assay: Neuroprotective effect against 6-OHDA-induced neurotoxicity in human SH-SY5Y cells at 0.1 uM treated 1 hr before 6-OHDA injury after 24 hrs by MTT assay relative to control; format: functional
SH-SY5Y [2] = assay: Neuroprotective effect against 6-OHDA-induced neurotoxicity in human SH-SY5Y cells at 1 uM treated 1 hr before 6-OHDA injury after 24 hrs by MTT assay relative to control; format: functional

Structure (SMILES) | Activity (SH-SY5Y [1]) [%] | Activity (SH-SY5Y [2]) [%]
COc1cc(OC)cc(C(O[C@@H]2O[C@H](CO)[C@@H](O)[C@H](O)[C@H]2O)C(O)c2ccccc2)c1 (stereo partly drawn) | 29.5 | 97.3
O=C(O[C@@H]1Cc2c(O)cc(O)cc2O[C@@H]1c1cc(O)c(O)c(O)c1)c1cc(O)c(O)c(O)c1 [EPIGALOCATECHIN GALLATE] | 20.1 | 42.2
Cc1c(O)cc(CCc2ccccc2)cc1O[C@@H]1O[C@H](CO)[C@@H](O)[C@H](O)[C@H]1O | 50.9 | 72.4
COc1ccc(CCc2cc(O)c(C)c(O[C@@H]3O[C@H](CO)[C@@H](O)[C@H](O)[C@H]3O)c2)cc1 | 31 | 65.6
